Source: patent US12298319B2, “Method for measuring alpha value of muscarinic M1 receptor positive allosteric modulators” (Takeda Pharmaceutical Company Limited, priority 2017, dated 2025)
Read-outs that look alike come from different tables or passages of the source.

What was measured:
[1] = Pharmacokinetics after oral administration to mice; type: in vivo, mouse; conditions: for Cmax / Tmax / AUC(0-t): mouse, plasma, po; for AUC(0-t): read-out: AUC0-4 h
Experimental: Plasma concentration of Compound B at 30 and 1000 mg/kg. Plasma samples were collected at 0.5, 1, 2, 4 and 6 h after oral treatment. Results represent the mean. n=3 per group.

[2] = test system: layer 5 pyramidal neurons; assay: Electrophysiology, current clamp of layer 5 pyramidal neurons in mPFC slices; type: cell-based, mouse; conditions: bath application, Compound D at 10 μM; for after hyperpolarization (AHP) / resting membrane potential (RMP): carbachol 10 M [sic] for 10 min; for after depolarization (ADP): carbachol for 10 min as printed
Experimental: Experiments were performed on coronal brain slices of the medial prefrontal cortex (mPFC) from 4-week-old male C57BL/6 mice. The animals were quickly sacrificed and the brain was placed in an ice-cold NMDG artificial cerebrospinal fluid (ACSF) (in mM): NMDG, 92; KCl, 2.5; CaCl2, 0.5; NaH2PO4, 1.25; MgSO4, 6; NaHCO3, 30; glucose, 25; HEPES, 20; thiourea, 2; Na-ascorbate, 5; and Na-pyruvate, 3) (Ting J. T. et al., Methods Mol Biol. 2014; 1183:221-42). Slices were cut at a thickness of 300 μm with a vibroslicer. Slices were initially transferred to a holding chamber containing NMDG aCSF for 15 minutes at 34° C. Slices were then transferred to a room temperature holding chamber for at least 1 h containing HEPES aCSF (in mM): NMDG, 92; KCl, 2.5; CaCl2, 2; NaH2PO4, 1.25; MgSO4, 2; NaHCO3, 30; glucose, 25; HEPES, 20; thiourea, 2; Na-ascorbate, 5; and Na-pyruvate, 3). Subsequently, the slices were transferred to the recording chamber, in which they were submerged and perfused with aCSF containing the following (in mM): NaCl, 124; KCl, 5; NaH2PO4, 1.2; MgCl2, 1.5; CaCl2, 2.5; glucose, 10; and NaHCO3, 24), at a flow rate of 1-2 ml/min. All buffers were continuously bubbled and saturated with carbogen (95% O2/5% CO2). Current clamp recordings were carried out at 32-33° C. from visually identified pyramidal neurons from layer 5 using a borosilicate pipette (5-7 MΩ) filled with intracellular solution (in mM): K-gluconate, 135; KCl, 4; HEPES, 10; EGTA, 0.2; MgATP, 4; Na2GTP, 0.3; pH 7.3 with KOH). Signals were acquired using a Multiclamp 700B amplifier and a Digidata 1440A interface board (Molecular Devices Japan, Tokyo, Japan), filtered between 2 kHz, sampled at 10 kHz, and analyzed with pClamp10 software.
M1Rs are known to contribute to the three cholinergic effects in layer 5 pyramidal neurons: the resting membrane potential (RMP) and physiological responses such as the after hyperpolarization (AHP) the after depolarization (ADP) that typically follow brief periods of action potential generation (Gulledge et al., J. Neurosci. 2009 Aug. 5; 29(31): 9888-9902). To investigate effects of M1 PAMs with different n value on brain function, cholinergic excitation by Compound D and Compound C were assessed. First, the muscarinic receptor agonist carbachol ([…] for 10 min) was tested by bath application (FIG. 13-A, FIG. 13-B, FIG. 13-C).

| Structure (SMILES) | Cmax ([1]; 30 mg/kg p.o.) [ng/mL] | Tmax ([1]; 30 mg/kg p.o.) [h] | AUC(0-t) ([1]; 30 mg/kg p.o.) [ng·h/mL] | Cmax ([1]; 1000 mg/kg p.o.) [ng/mL] | Tmax ([1]; 1000 mg/kg p.o.) [h] | AUC(0-t) ([1]; 1000 mg/kg p.o.) [ng·h/mL] | plasma concentration at 1000 mg/kg relative to 30 mg/kg ([1]; p.o.) [fold] | after hyperpolarization (AHP) [2] | resting membrane potential (RMP) [2] | after depolarization (ADP) [2] |
| --- | --- | --- | --- | --- | --- | --- | --- | --- | --- | --- |
| Cn1cc(-c2ccc(CN3Cc4cccc(Oc5c(F)cccc5C#N)c4C3=O)cc2)cn1 [Compound B, 3-fluoro-2-((2-(4-(1-methyl-1H-pyrazol-4-yl)benzyl)-3-oxo-2,3-dihydro-1H-isoindol-4-yl)oxy)benzonitrile] | 270 | 2 | 800 | 970 | 1.7 | 3020 | 3.6 | – | – | – |
| Cn1cc(-c2ccc(Cc3cc4c(=O)n([C@H]5CCCC[C@@H]5O)cnc4c4ccccc34)cn2)cn1 [Compound C, 3-((1S,2S)-2-hydroxycyclohexyl)-6-((6-(1-methyl-1H-pyrazol-4-yl)pyridin-3-yl)methyl)benzo[h]quinazoline-4(3H)-one, reference compound] | – | – | – | – | – | – | – | suppressed the AHP | generated subthreshold changes in the RMP | generated an ADP |
| Cc1c(Cc2ccc(-n3cccn3)cc2)cc2c(c1F)CN([C@H]1COCC[C@@H]1O)C2=O [Compound D, 4-fluoro-2-[(3S,4S)-4-hydroxytetrahydro-2H-pyran-3-yl]-5-methyl-6-[4-(1H-pyrazol-1-yl)benzyl]-2,3-dihydro-1H-isoindol-1-one] | – | – | – | – | – | – | – | not depolarization of RMP and suppression of AHP | not depolarization of RMP | produced significant ADP generation |
